Experimental data from PubChem BioAssay (NCI).
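Each compound was tested at five concentrations against cells in 96-well plates for 48 hours. GI50 marks 50% less growth. TGI denotes the concentration required for complete inhibition of growth.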

Legend:
Test in all cases: inhibition of tumour cell growth, NCI panel, 48 h
NCI-H226 lung = tested on: NCI-H226 lung
RPMI-8226 leukemia = tested on: RPMI-8226 leukemia
UACC-62 melanoma = tested on: UACC-62 melanoma
SK-MEL-2 melanoma = tested on: SK-MEL-2 melanoma
OVCAR-8 ovarian = tested on: OVCAR-8 ovarian
SN12C renal = tested on: SN12C renal
MDA-MB-231 breast = tested on: MDA-MB-231 breast
T-47D breast = tested on: T-47D breast
HS 578T breast = tested on: HS 578T breast
SNB-75 CNS = tested on: SNB-75 CNS
HCT-116 colon = tested on: HCT-116 colon
SR leukemia = tested on: SR leukemia
OVCAR-5 ovarian = tested on: OVCAR-5 ovarian
LOX IMVI melanoma = tested on: LOX IMVI melanoma
OVCAR-4 ovarian = tested on: OVCAR-4 ovarian
NCI-H460 lung = tested on: NCI-H460 lung
HCT-15 colon = tested on: HCT-15 colon
SNB-19 CNS = tested on: SNB-19 CNS
KM12 colon = tested on: KM12 colon
SK-MEL-5 melanoma = tested on: SK-MEL-5 melanoma
SW-620 colon = tested on: SW-620 colon
BT-549 breast = tested on: BT-549 breast
SF-295 CNS = tested on: SF-295 CNS
CAKI-1 renal = tested on: CAKI-1 renal
HOP-62 NSCLC = tested on: HOP-62 NSCLC
M14 melanoma = tested on: M14 melanoma
U251 CNS = tested on: U251 CNS
SK-OV-3 ovarian = tested on: SK-OV-3 ovarian
MDA-MB-435 = tested on: MDA-MB-435
NCI/ADR-RES ovarian = tested on: NCI/ADR-RES ovarian
UACC-257 melanoma = tested on: UACC-257 melanoma
A549 NSCLC = tested on: A549 NSCLC
K-562 leukemia = tested on: K-562 leukemia
HCC-2998 colon = tested on: HCC-2998 colon
OVCAR-3 ovarian = tested on: OVCAR-3 ovarian
MOLT-4 leukemia = tested on: MOLT-4 leukemia
786-0 renal = tested on: 786-0 renal
HOP-92 NSCLC = tested on: HOP-92 NSCLC
EKVX NSCLC = tested on: EKVX NSCLC
ACHN renal = tested on: ACHN renal
NCI-H522 lung = tested on: NCI-H522 lung
PC-3 prostate = tested on: PC-3 prostate
IGROV1 ovarian = tested on: IGROV1 ovarian
TK-10 renal = tested on: TK-10 renal
MDA-MB-468 breast = tested on: MDA-MB-468 breast
SF-268 CNS = tested on: SF-268 CNS
CCRF-CEM leukemia = tested on: CCRF-CEM leukemia
DU-145 prostate = tested on: DU-145 prostate
SK-MEL-28 melanoma = tested on: SK-MEL-28 melanoma
RXF 393 renal = tested on: RXF 393 renal
MALME-3M melanoma = tested on: MALME-3M melanoma
UO-31 renal = tested on: UO-31 renal
A498 renal = tested on: A498 renal
HL-60(TB) leukemia = tested on: HL-60(TB) leukemia
HT29 colon = tested on: HT29 colon
COLO 205 colon = tested on: COLO 205 colon
NCI-H23 lung = tested on: NCI-H23 lung
SF-539 CNS = tested on: SF-539 CNS
MCF7 breast = tested on: MCF7 breast

CN(C)CCOc1ccc(C(=O)C2[C@H](c3ccc(Cl)cc3)[C@@H](c3ccccc3)NC23C(=O)Nc2ccc(Cl)cc23)cc1 (stereo partly drawn)
GI50 (NCI-H226 lung): 15.3 µM
TGI (NCI-H226 lung): 33.1 µM
GI50 (RPMI-8226 leukemia): 18.6 µM
TGI (RPMI-8226 leukemia): 43.4 µM
GI50 (UACC-62 melanoma): 15.1 µM
TGI (UACC-62 melanoma): 28.7 µM
GI50 (SK-MEL-2 melanoma): 15.9 µM
TGI (SK-MEL-2 melanoma): 30 µM
GI50 (OVCAR-8 ovarian): 16.3 µM
TGI (OVCAR-8 ovarian): 31.5 µM
GI50 (SN12C renal): 13.5 µM
TGI (SN12C renal): 26.7 µM
GI50 (MDA-MB-231 breast): 15.1 µM
TGI (MDA-MB-231 breast): 28.7 µM
GI50 (T-47D breast): 14.6 µM
TGI (T-47D breast): 30 µM
GI50 (HS 578T breast): 12.5 µM
TGI (HS 578T breast): 34.2 µM
GI50 (SNB-75 CNS): 10.4 µM
TGI (SNB-75 CNS): 24.7 µM
GI50 (HCT-116 colon): 12.8 µM
TGI (HCT-116 colon): 26 µM
GI50 (SR leukemia): 13.7 µM
TGI (SR leukemia): 29.7 µM
GI50 (OVCAR-5 ovarian): 14.6 µM
TGI (OVCAR-5 ovarian): 27.8 µM
GI50 (LOX IMVI melanoma): 13.5 µM
TGI (LOX IMVI melanoma): 26.8 µM
GI50 (OVCAR-4 ovarian): 14.4 µM
TGI (OVCAR-4 ovarian): 29 µM
GI50 (NCI-H460 lung): 13 µM
TGI (NCI-H460 lung): 26.3 µM
GI50 (HCT-15 colon): 15.2 µM
TGI (HCT-15 colon): 28.8 µM
GI50 (SNB-19 CNS): 15.6 µM
TGI (SNB-19 CNS): 29.2 µM
GI50 (KM12 colon): 13.6 µM
TGI (KM12 colon): 29 µM
GI50 (SK-MEL-5 melanoma): 15.8 µM
TGI (SK-MEL-5 melanoma): 29.2 µM
GI50 (SW-620 colon): 12.3 µM
TGI (SW-620 colon): 25.3 µM
GI50 (BT-549 breast): 14.4 µM
TGI (BT-549 breast): 27.7 µM
GI50 (SF-295 CNS): 16.3 µM
TGI (SF-295 CNS): 30.5 µM
GI50 (CAKI-1 renal): 13.4 µM
TGI (CAKI-1 renal): 26.3 µM
GI50 (HOP-62 NSCLC): 12.7 µM
TGI (HOP-62 NSCLC): 26 µM
GI50 (M14 melanoma): 16 µM
TGI (M14 melanoma): 29.8 µM
GI50 (U251 CNS): 15.3 µM
TGI (U251 CNS): 29.3 µM
GI50 (SK-OV-3 ovarian): 14.3 µM
TGI (SK-OV-3 ovarian): 27.7 µM
GI50 (MDA-MB-435): 14.5 µM
TGI (MDA-MB-435): 28.2 µM
GI50 (NCI/ADR-RES ovarian): 16.6 µM
TGI (NCI/ADR-RES ovarian): 31.4 µM
GI50 (UACC-257 melanoma): 15.7 µM
TGI (UACC-257 melanoma): 30.6 µM
GI50 (A549 NSCLC): 14.3 µM
TGI (A549 NSCLC): 28.9 µM
GI50 (K-562 leukemia): 13 µM
TGI (K-562 leukemia): 34.2 µM
GI50 (HCC-2998 colon): 13.4 µM
TGI (HCC-2998 colon): 26.9 µM
GI50 (OVCAR-3 ovarian): 14.2 µM
TGI (OVCAR-3 ovarian): 29.9 µM
GI50 (MOLT-4 leukemia): 12.6 µM
TGI (MOLT-4 leukemia): 29.6 µM
GI50 (786-0 renal): 15 µM
TGI (786-0 renal): 29.2 µM
GI50 (HOP-92 NSCLC): 8.92 µM
TGI (HOP-92 NSCLC): 22.2 µM
GI50 (EKVX NSCLC): 14.3 µM
TGI (EKVX NSCLC): 28.1 µM
GI50 (ACHN renal): 14.5 µM
TGI (ACHN renal): 27.6 µM
GI50 (NCI-H522 lung): 14.8 µM
TGI (NCI-H522 lung): 29.1 µM
GI50 (PC-3 prostate): 15.5 µM
TGI (PC-3 prostate): 31.7 µM
GI50 (IGROV1 ovarian): 14.3 µM
TGI (IGROV1 ovarian): 28.2 µM
GI50 (TK-10 renal): 14 µM
TGI (TK-10 renal): 27.3 µM
GI50 (MDA-MB-468 breast): 8.98 µM
TGI (MDA-MB-468 breast): 22.3 µM
GI50 (SF-268 CNS): 15 µM
TGI (SF-268 CNS): 33.5 µM
GI50 (CCRF-CEM leukemia): 16.8 µM
TGI (CCRF-CEM leukemia): 34.8 µM
GI50 (DU-145 prostate): 15.9 µM
TGI (DU-145 prostate): 30.2 µM
GI50 (SK-MEL-28 melanoma): 16.2 µM
TGI (SK-MEL-28 melanoma): 29.9 µM
GI50 (RXF 393 renal): 10.8 µM
TGI (RXF 393 renal): 23.6 µM
GI50 (MALME-3M melanoma): 14.7 µM
TGI (MALME-3M melanoma): 29.7 µM
GI50 (UO-31 renal): 12.8 µM
TGI (UO-31 renal): 25.5 µM
GI50 (A498 renal): 14.6 µM
TGI (A498 renal): 28.1 µM
GI50 (HL-60(TB) leukemia): 11 µM
TGI (HL-60(TB) leukemia): 28.1 µM
GI50 (HT29 colon): 14.4 µM
TGI (HT29 colon): 28.1 µM
GI50 (COLO 205 colon): 15.6 µM
TGI (COLO 205 colon): 29.3 µM
GI50 (NCI-H23 lung): 16.4 µM
TGI (NCI-H23 lung): 31 µM
GI50 (SF-539 CNS): 14.7 µM
TGI (SF-539 CNS): 27.8 µM
GI50 (MCF7 breast): 5.71 µM
TGI (MCF7 breast): 18.8 µM
